Results on one molecule are retold here after US8372834B2, “Compositions and methods for delivery of anti-cancer agents” (University of Wollongong, priority 2007, dated 2013).

In general, IC50 refers to the midpoint of a concentration-inhibition curve.

The nature of series [1]: Preliminary stability study of compositions. Format: physicochemical. As to conditions: three weeks, room temperature, protected from light. The protocol:
A preliminary assessment of the stability of the compositions was carried out over a period of three weeks. Test samples were manufactured using the FD2 method described above and stored at room temperature. 5-FU is known to be light sensitive and therefore the samples were protected from exposure to light. The samples were monitored at set time intervals for signs of decomposition using a solution of the equivalent concentration of 5-FU in saline (0.9%) as a control. The methods of monitoring the solutions were physical appearance (solid formation etc.), pH and UV-VIS absorbance spectroscopy (266 nm). The 5-FU solution was warmed and sonicated to dissolve any solid 5-FU that had precipitated before pH and absorbance readings.

A further series deals with PC-14. Description: In vitro cytotoxicity, MTS cell proliferation assay. It counts as cell-based. The conditions noted are these: PC-14 cells. The protocol:
(§1) After 72 h, cell proliferation was analysed by the MTS assay and normalised to saline control treatments (100% proliferation). ● 5-FU, ▪ 5-FU:FA, ▴ FD45c, ♦ FD50-7Sc, ? FD100HPc. Dashed lines represent the IC50 for each treatment (GraphPad). Values shown are mean±SD (n=4, except for HCT-116 FD50-7Sc and MDA-MB-231 FD100HPc where n=3)
(§2) In vitro cytotoxicity assays were carried out on 5 different carcinoma cell lines (MDA-MB-231, HCT-116, COLO-201, PC-3 and PC-14) using 3 different compositions of the invention (FD45c, FD50-7Sc and FD100HPc). MDA-MB-231 is a breast cancer cell line, HCT-116 and COLO-201 are colon cancer cell lines, PC-3 is a prostate cancer cell line and PC-14 is a non-small cell lung cancer cell line.
(§3) The levels of 5-FU and FA remained constant in each composition. For comparison, assays were also performed using a combination of 5-FU and FA (5-FU:FA), and also 5-FU only. A summary of IC50 values for all cell lines is presented in Table 1 below, and representative dose-response curves used to generate these IC50 values are presented in FIG. 3.
A general note: Formazan colour is commonly taken as a measure of viable cells.

For another series, the system named is PC-3. Described as above. It counts as cell-based. As to conditions: Homo sapiens, PC-3 cells, 72 h, mean IC50 ± SD, at least 3 independent experiments, read-out: IC50 (μM 5-FU). As for the experimental part: as §1, §2, §3
The subject of the next series is HCT-116. Described as above. It counts as cell-based. As to conditions: Homo sapiens, HCT-116 cells, 72 h, mean IC50 ± SD, at least 3 independent experiments, read-out: IC50 (μM 5-FU). The protocol: as §1, §2, §3
Another series concerns MDA-MB-231. The description is as above. It counts as cell-based. As to conditions: Homo sapiens, MDA-MB-231 cells, 72 h, mean IC50 ± SD, at least 3 independent experiments, read-out: IC50 (μM 5-FU). The protocol:
as §1, §2, §3

Another series has as its system COLO-201. The description is as above. Format: cell-based. The conditions noted are these: COLO-201 cells. As for the experimental part: as §1, §2, §3
Setting [2] is: Homo sapiens, 72 h, MTS assay, mean IC50 ± SD, at least 3 independent experiments, read-out: IC50 (μM 5-FU).

With `O=c1[nH]cc(F)c(=O)[nH]1` [Composition 5-FU, 5-fluorouracil], in series [1], the “change in pH over time” value is recorded as “No significant change”. In addition, the “change in A266 over time (UV-VIS absorbance, 266 nm)” value in series [1] (serial dilution) is recorded as “No overall trend of change”. In addition, the half-maximal inhibitory concentration (IC50) with PC-14 (setting [2]) was determined as 33.4 ± 12.2 µM; in the series with PC-3, 1.4 ± 0.8 µM; with HCT-116, 4 ± 1.3 µM; in the series with MDA-MB-231, 9.1 ± 1.4 µM; in the series with COLO-201 (setting [2]) it was 39.3 ± 13.9 µM. Besides, the “effectiveness compared to 5-FU:FA” value in the series with PC-14 (P=0.0084) and in the series with COLO-201 (P=0.0084) was “significantly less effective than 5-FU:FA” each time.
